Experimental data as given in the supplement of paper PMC13380429.

What was measured:
Details in all cases: 72 h
Calu-3 [1] = assay: drug sensitivity score (DSS) for viability; higher = more toxic; extreme values may be limits of the assay
U2OS [2] = assay: as above
HepG2 [3] = assay: as above
Vero E6 [4] = assay: as above
Caco-2 [5] = assay: as above
Calu-3 [6] = assay: cell viability relative to DMSO; higher = less toxic
U2OS [7] = assay: as above
HepG2 [8] = assay: as above
Vero E6 [9] = assay: as above
Caco-2 [10] = assay: as above
Calu-3 [11] = assay: relative viability EC50 (midpoint between 100% and the lowest measured viability); higher = less toxic
U2OS [12] = assay: as above
HepG2 [13] = assay: as above
Vero E6 [14] = assay: as above
Caco-2 [15] = assay: as above

Row | Structure (SMILES) | drug sensitivity score (Calu-3 [1]) | drug sensitivity score (U2OS [2]) | drug sensitivity score (HepG2 [3]) | drug sensitivity score (Vero E6 [4]) | drug sensitivity score (Caco-2 [5]) | cell viability (Calu-3 [6]; 1 nM) [%] | cell viability (Calu-3 [6]; 10 nM) [%] | cell viability (Calu-3 [6]; 100 nM) [%] | cell viability (Calu-3 [6]; 1000 nM) [%] | cell viability (Calu-3 [6]; 10000 nM) [%] | cell viability (U2OS [7]; 1 nM) [%] | cell viability (U2OS [7]; 10 nM) [%] | cell viability (U2OS [7]; 100 nM) [%] | cell viability (U2OS [7]; 1000 nM) [%] | cell viability (U2OS [7]; 10000 nM) [%] | cell viability (HepG2 [8]; 1 nM) [%] | cell viability (HepG2 [8]; 10 nM) [%] | cell viability (HepG2 [8]; 100 nM) [%] | cell viability (HepG2 [8]; 1000 nM) [%] | cell viability (HepG2 [8]; 10000 nM) [%] | cell viability (Vero E6 [9]; 1 nM) [%] | cell viability (Vero E6 [9]; 10 nM) [%] | cell viability (Vero E6 [9]; 100 nM) [%] | cell viability (Vero E6 [9]; 1000 nM) [%] | cell viability (Vero E6 [9]; 10000 nM) [%] | cell viability (Caco-2 [10]; 1 nM) [%] | cell viability (Caco-2 [10]; 10 nM) [%] | cell viability (Caco-2 [10]; 100 nM) [%] | cell viability (Caco-2 [10]; 1000 nM) [%] | cell viability (Caco-2 [10]; 10000 nM) [%] | relative viability EC50 (Calu-3 [11]) [µM] | relative viability EC50 (U2OS [12]) [µM] | relative viability EC50 (HepG2 [13]) [µM] | relative viability EC50 (Vero E6 [14]) [µM] | relative viability EC50 (Caco-2 [15]) [µM]
1 | CO[C@H]1/C=C\C=C(/C)C(=O)NC2=CC(=O)C(NCCN(C)C)=C(C[C@@H](C)C[C@H](OC)[C@H](O)[C@@H](C)/C=C(\C)[C@@H]1OC(N)=O)C2=O [alvespimycin] | 16.4 | 26.6 | 36 | 12.8 | 13.9 | 97.3 | 88.4 | 67.1 | 36 | 20 | 97.7 | 91.3 | 30.8 | 2.5 | 1 | 106 | 57.9 | 1.3 | 1.4 | -0.1 | 93.4 | 98.4 | 94.9 | 37 | 10.1 | 98.4 | 90.3 | 82.9 | 39.7 | 1.6 | 0.148 | 0.0542 | 0.0114 | 0.587 | 0.544
2 | COC1=CC(=O)C[C@@H](C)[C@]12Oc1c(Cl)c(OC)cc(OC)c1C2=O [griseofulvin] | 0 | 0 | 0 | 0 | 0 | 106 | 95.7 | 98 | 107 | 108 | 102 | 100 | 102 | 98.8 | 96.2 | 86.3 | 95.5 | 95.6 | 101 | 90 | 104 | 98.8 | 91.1 | 107 | 94.8 | 106 | 88.5 | 93.6 | 103 | 88.1 | > 10 | > 10 | > 10 | > 10 | > 10
3 | O=C(O)[C@H](Cc1ccccc1)NCc1ccc(Cl)cc1 | 0 | 0 | 0 | 0 | 0 | 92.8 | 91.5 | 93.8 | 98 | 92.5 | 95.2 | 98.7 | 91 | 98.3 | 94.5 | 95.6 | 101 | 97.1 | 93.3 | 103 | 99.8 | 102 | 92.9 | 99.4 | 101 | 107 | 99.6 | 106 | 101 | 102 | > 10 | > 10 | > 10 | > 10 | > 10
